PubChem BioAssay AID489027 (Sanford-Burnham Center for Chemical Genomics, 2010)
The source made the active and inactive calls. How the calls were made is not given here.

These compounds were tested against UPR counterscreen luciferase reporter, luminescence (assay: luciferase reporter activation, UPR counterscreen line – cell-based, luminescence, counter-screen for adaptive UPR activator project, dose response (AID 489027)).

SMILES	EC50
CCOC(=O)N1CCN(S(=O)(=O)c2ccc(C(=O)Nc3nc4c(s3)CC(C)CC4)cc2)CC1 (stereo unspecified)	9.29 µM
COc1ccc(-c2coc3cc4oc(=O)cc(-c5ccccc5)c4cc23)cc1F	inactive
O=C(C[C@H]1C/C=C\C[C@@H](NC(=O)OCC2c3ccccc3-c3ccccc32)C(=O)O[C@@H](c2ccccc2)CNC1=O)N[C@H](CO)Cc1ccccc1	18.1 µM
CCOC(=O)c1c(NC(=O)CSc2nnc3c(n2)[nH]c2ccc(F)cc23)sc(C(C)=O)c1C	17.4 µM
CC1CCCN(c2ccc(C(=O)NCc3cccs3)cn2)C1 (stereo unspecified)	> 80 µM (inactive)
CC(=O)c1cccc(N=Cc2c(O)c3ccccc3oc2=O)c1	7.69 µM
Cc1ccc2nc(-c3ccc(NC(=S)NC4CC(C)(C)NC(C)(C)C4)cc3)sc2c1	9.04 µM
Cc1ccc(-c2nnn(CC(=O)Nc3ccc(S(=O)(=O)N4CCC(C)CC4)cc3)n2)cc1	inactive
CCNC(=O)c1c(NC(=O)c2cc(-c3cc(C)ccc3O)n[nH]2)sc2c1CCCC2	> 80 µM (inactive)
Cc1ccc(Cc2cnc(NC(=O)/C(C#N)=C/c3ccc(-c4ccc([N+](=O)[O-])cc4)o3)s2)cc1	11.3 µM
CC1=CC(C)[C@H](/C=N/n2c(=O)[nH]c3c([nH]c4ccc(Br)cc43)c2=O)C(C)C1 (stereo partly specified)	inactive
O=C1NC(=O)N(Cc2ccccc2Cl)C(=O)/C1=C/c1cccs1	13 µM
CCN(CC)c1ccc(N=Cc2c(O)n(-c3ccc(Cl)cc3)c(=O)[nH]c2=O)cc1	20 µM
CCC(=O)Nc1ccc(NC(=O)CSc2nc3cc4c(cc3cc2C)CCC4)cc1	> 80 µM (inactive)
O=C(CSc1nc2ccccc2c(=O)n1-c1ccccc1)N1CCc2ccccc21	inactive
Cc1ccc(O)c(NC(=S)NC(=O)Cc2ccc(Cl)cc2)c1	inactive
Brc1ccc2c(c1)C(c1ccc(N3CCOCC3)cc1)=NNC(c1cccs1)=N2	inactive
CN(C)CCOc1ccc(-c2c(-c3ccccc3)sc3ccccc23)cc1	17 µM
COc1ccc(NC(=O)CSc2nc3ccc(Nc4nc(N5CCOCC5)nc(N5CCOCC5)n4)cc3s2)cc1	> 80 µM (inactive)
CCc1ccc2nc(N(CCCN(C)C)C(=O)c3ccc(S(=O)(=O)N4CCc5ccccc5C4)cc3)sc2c1	12.7 µM
COc1ccc(C(=O)/C=C/c2cccs2)c(OC(=O)c2cccc([N+](=O)[O-])c2)c1	inactive
Cn1cc(/C=C(\C#N)C(=O)Nc2cccc([N+](=O)[O-])c2)c2ccccc21	> 80 µM (inactive)

SMILES	EC50
Cc1c(C(=O)Nc2nccs2)oc2ccc(Br)cc12	> 80 µM (inactive)
COc1ccc(-c2ccc(C#N)c(SCC(=O)Nc3sc4c(c3C#N)CCC4)n2)cc1OC	> 80 µM (inactive)
Cc1ccc2nc(/C(C#N)=C/c3ccc(O)c(O)c3)[nH]c2c1	13.7 µM
C=CCN1C(=O)/C(=C2/Sc3ccc(OC)cc3N2C)SC1=Nc1cccc(O)c1	> 80 µM (inactive)
O=c1[nH]c(O)c(/C=C2/C=CC(c3cc(Cl)ccc3Cl)=N2)c(=O)[nH]1	6.12 µM
O=C(COC(=O)c1ccc2[nH]c3c(c2c1)CCCC3)Nc1ccccc1Cl	> 80 µM (inactive)
CN(/N=C\c1ccc(O)c(O)c1)c1nc(-c2ccccc2)cc(-c2ccccc2)n1	7.52 µM
Cc1cc(C)c2sc(N(CCCN(C)C)C(=O)c3ccc(S(=O)(=O)N4CCCc5ccccc54)cc3)nc2c1	> 80 µM (inactive)
C#CCn1c(=NC(=O)c2ccc(Cl)s2)sc2cccc(OC)c21	> 80 µM (inactive)
O=C(NCCC1=CCCCC1)C(=O)NCC(c1ccco1)N1CCN(c2ccc(F)cc2)CC1 (stereo unspecified)	> 80 µM (inactive)
COCc1cc(C)nc(OCC(=O)N/N=C/c2ccc(-c3cc([N+](=O)[O-])ccc3Cl)o2)c1C#N	13.6 µM
COc1cc([C@@H]2c3cc4c(cc3[C@@H](O)[C@H]3COC(=O)[C@H]23)OCO4)cc(OC)c1O[Si](C)(C)C(C)(C)C	14.6 µM
CC1CCC(C(C)C)C(OC(=O)Cn2c(-c3ccc(Cl)cc3)[n+](C)c3ccccc32)C1 (stereo unspecified)	13.4 µM
COc1ccccc1C(=O)NC(=S)NNC(=O)c1sc2ccccc2c1Cl	inactive
CCCCNC(=O)c1ccc(Cn2c(=S)[nH]c3c([nH]c4ccc(OC)cc43)c2=O)cc1	> 80 µM (inactive)
Cc1cc(C)c2c(c1)/C(=N/Nc1ccc(S(N)(=O)=O)cc1[N+](=O)[O-])CCC2	> 80 µM (inactive)
COc1ccc(C(CCNCc2ccc(F)cc2)c2ccc(F)cc2)cc1 (stereo unspecified)	13.6 µM
COc1ccc(C(=O)Oc2cc3c4c(c2)C(C)=CC(C)(C)N4C(=O)C3=O)cc1OC	inactive
N#Cc1c(-c2ccc3c(c2)OCO3)ccn2nc(-c3cccc(C(F)(F)F)c3)nc12	inactive
COc1ccc2nc(NC(=O)c3cccc(-c4cc5ccccc5oc4=O)c3)sc2c1	> 80 µM (inactive)
CCOc1cc(/C=C2/NC(=S)NC2=O)ccc1OCc1ccc([N+](=O)[O-])cc1	inactive
C[C@@H]1C[C@H]2[C@@H]3CCC4=CC(=O)C=C[C@]4(C)[C@@]3(Cl)[C@@H](O)C[C@]2(C)[C@@]1(OC(=O)c1ccco1)C(=O)CCl	> 80 µM (inactive)

SMILES	EC50
CCOc1cc2c3c(c1)C(C)=CC(C)(C)N3C(=O)C2=O	inactive
Brc1cc2c(cc1/C=N/Nc1nc3ccccc3s1)OCO2	> 80 µM (inactive)
CCOC(=S)SCC(=O)Nc1nc(-c2ccc(Br)cc2)cs1	13 µM
CC1C/C(=N/Nc2nc3ccccc3[nH]2)CC(C)(C)C1 (stereo unspecified)	14.6 µM
COc1ccc(-c2sc3ccccc3c2-c2ccc(OCCN(C)C)cc2)cc1	13.3 µM
O=C(NCCCn1ccnc1)c1nn2c(C(F)(F)F)cc(-c3ccc(Br)cc3)nc2c1Cl	> 80 µM (inactive)
CC1CCCCC1N1CN=C(Nc2nc3ccccc3s2)NC1 (stereo unspecified)	> 80 µM (inactive)
CCOC(=O)c1[nH]c2ccc(Cl)cc2c1NC(=O)/C=C/c1ccc2c(c1)OCO2	inactive
Cc1ccc2c(c1)C(c1ccc(N3CCOCC3)cc1)=NNC(c1cccs1)=N2	inactive
Cc1ccc(Nc2nc(NCCO)c3ccccc3n2)cc1C	> 80 µM (inactive)
CCOC(=O)/C(=N\Nc1ccc(C(C)=O)cc1)c1csc(Nc2ccccc2)n1	inactive
Cc1ccc(/C=C/C(=O)c2cc(Br)ccc2OC(=O)c2ccco2)cc1	inactive
CCc1ccc(OCCNc2cc(N3CCNC(C)C3)ccc2[N+](=O)[O-])cc1 (stereo unspecified)	> 80 µM (inactive)
CCOC(=O)c1c(NC(=O)Cc2cccs2)sc(C(=O)NC2CCCCC2)c1C	> 80 µM (inactive)
COc1ccc2cc(C)c3nnc(SCC(=O)Nc4nc(-c5ccc(F)cc5)cs4)n3c2c1	13 µM
COc1ccc(C2CC(c3c(-c4ccccc4)c4cc(Cl)ccc4[nH]c3=O)=NN2S(C)(=O)=O)cc1 (stereo unspecified)	> 80 µM (inactive)
Cc1ccc(Cn2c(=O)n(-c3ccccc3)c(=O)c3ccc(C(=O)NCc4ccco4)cc32)cc1	> 80 µM (inactive)
O=C(N/N=C/C(Br)=C\c1ccccc1)c1n[nH]c2c1CCC2	inactive
CCOC(=O)c1c(NC(=O)CNC2CCCc3ccccc32)sc(C(N)=O)c1C (stereo unspecified)	> 80 µM (inactive)
O=[N+]([O-])c1cc(-c2ccc(/C=N/c3nc4ccccn4c3-c3ccco3)o2)ccc1Cl	> 80 µM (inactive)
Cc1[nH]c2ccccc2c1/C=C/c1nc2ccccc2c(=O)n1-c1ccc([N+](=O)[O-])cc1	> 80 µM (inactive)
COc1ccc(/C=N/Nc2nnc(-c3ccccc3)c(=O)[nH]2)cc1	15.6 µM
